13 molecules from patent publication US8999990B2, “Inhibitors of the renal outer medullary potassium channel” (Merck Sharp & Dohme Corp., priority 2011, dated 2015) can be followed below.

This test concerns the target T1, hROMK1 (Kir1.1) (Homo sapiens, UniProt P48048).
T1 construct: expressed in transfected cells
T1 sequence (P48048 1-391): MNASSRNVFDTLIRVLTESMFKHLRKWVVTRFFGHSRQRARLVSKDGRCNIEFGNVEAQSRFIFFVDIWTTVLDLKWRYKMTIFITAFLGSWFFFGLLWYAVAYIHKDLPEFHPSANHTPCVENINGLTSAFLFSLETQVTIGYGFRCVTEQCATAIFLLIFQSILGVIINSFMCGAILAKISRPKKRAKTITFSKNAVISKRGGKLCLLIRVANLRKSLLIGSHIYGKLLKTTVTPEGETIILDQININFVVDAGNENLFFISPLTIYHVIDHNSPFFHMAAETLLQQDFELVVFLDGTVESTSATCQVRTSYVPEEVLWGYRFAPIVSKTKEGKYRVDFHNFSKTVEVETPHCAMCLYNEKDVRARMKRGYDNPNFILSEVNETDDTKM
The test can be described thus: 86Rb+ Efflux Assay. The class given is cell-based. Particulars: CHO-DHFR- cells stably expressing hROMK1; 35 min incubation. The procedure: Several assays may be used to measure functional inhibition of the ROMK channel by compounds of the instant invention. One assay that was used to test the activity of compounds in the Examples is the functional ^86Rb^+ efflux assay described below, that measures the ability of ROMK to permeate ^86Rb^+, in the absence or presence of test compound. Under control conditions, cells loaded with ^86Rb^+ and incubated in Rb^+-free medium display a time-dependent efflux of the isotope, the rate of which depends on number of functional channels. When cells are incubated in the presence of a channel inhibitor, efflux of ^86Rb^+ is prevented in a concentration-dependent manner, and IC50 values of inhibition by compounds can be accurately determined. This assay has been established with cell lines expressing either human, rat or dog ROMK channels, and can operate in 96- or 384-well format. Importantly, the human, rat, and dog ^86Rb^+ efflux assays can be carried out in the presence of up to 100% serum allowing, therefore, an accurate estimation of the effect of protein binding on the inhibitory activity of compounds of interest. Another ROMK functional assay used to test the activity of compounds in the Examples (described below) makes use of the ability of thallium to permeate through open ROMK channels and increase the fluorescence of a dye previously loaded into the cells. Under control conditions, cells loaded with dye and exposed to thallium-containing medium display a time-dependent increase in fluorescence, the rate of which depends on number of functional channels. When cells are incubated in the presence of a channel inhibitor, the increase in fluorescence is attenuated in a concentration-dependent manner, and IC50 values of inhibition by compounds can be accurately determined. This assay has been established with cell lines expressing either human, or rat ROMK channels, and operates in 384-well format.
CHO-DHFR-cells stably expressing hROMK1 (Kir1.1) are grown at 37° C. in a 10% CO2 humidified incubator in Iscove's Modified Dulbecco's Medium (Gibco 12440) supplemented with HT Supplement, Penicillin/Streptomycin/Glutamine, G418 (500 μg/ml) and 10% FBS. Cells are seeded in Sterile and Tissue Culture Treated Packard CulturPlate White Opaque Microplates at a concentration of 5.0E5-7.0E5 cells/ml-PerkinElmer 6005680 (96-well); Corning 3707 (384 well) in complete media containing 1.5 μCi/ml Rubidium-86. Cells are incubated in 37° C.-10% CO2 incubator overnight. On the day of the experiment, the media is removed and cells are washed with low K assay buffer. ^86Rb^+ efflux is initiated after addition of assay buffer±test compound followed by 35 min incubation at room temperature. ROMK-sensitive component of efflux is defined in the presence of 10 mM BaCl2. Assay buffer is removed and transferred to a plate and cells are solubilized in the presence of SDS. Radioactivity associated with assay and cell plate is determined.
• 1. Remove cell media and wash cells with low K assay buffer (126.9 mM NaCl, 4.6 mM KCl, 2 mM CaCl2, 1 mM MgCl2, 10 mM Hepes/NaOH; pH 7.4) • 200 μl for 96-well plate; 70 μl for 384-well plate • 2. Add assay buffer (121.5 mM NaCl, 10 mM KCl, 2 mM CaCl2, 1 mM MgCl2, 10 mM Hepes/NaOH; pH 7.4)±test compound to cells • 100 μl for 96-well plate; 50 μl for 384-well plate • 3. Incubate at ambient temperature (22-24° C.) for 35 min • 4. Remove assay buffer add it to a 96- or 384-well plate containing Microscint-20 • 96-well Plate: 100 μl buffer, 170 μl MicroScint 20 (for TopCount) • 384-well plate: 20 μl buffer, 50 μl Optiphiase (for MicroLux) • 5. Completely remove remaining assay buffer from cell plate • 6. Solubilize cells with 1% SDS; than add MicroScint or Optiphase • 96-well Plate: 30 μl SDS, 170 μl MicroScint 20 (for TopCount) • 384-well plate: 20 μl SDS, 50 μl Optiphiase (for MicroLux) • 7. Seal both cell and supernatant plates and count Data Calculation— […]

Each structure is given as a SMILES string.

For orientation: IC50 means the concentration at which inhibition is half-maximal. `N#Cc1ccc2c(c1)CCC(N1CCN(CCc3ccc([N+](=O)[O-])cc3)C(=O)C1)C2` (racemic) [Example 2, 6-(4-(4-nitrophenethyl)-3-oxopiperazin-1-yl)-5,6,7,8-tetrahydronaphthalene-2-carbonitrile] showed a concentration for half-maximal inhibition (IC50) of 40 nM.

For the molecule `CC1C(=O)N(CCc2ccc([N+](=O)[O-])cc2)CCN1CCc1ccc([N+](=O)[O-])cc1` (racemic) [Example 6, 3-Methyl-1,4-bis[2-(4-nitrophenyl)ethyl]piperazin-2-one], the IC50 stood at 270 nM.

For `COc1cc([N+](=O)[O-])ccc1CCN1CCN(C2CCc3cc(C#N)ccc3C2)C(=O)C1` (racemic) [Example 9, 6-{4-[2-(2-Methoxy-4-nitrophenyl)ethyl]-2-oxopiperazin-1-yl}-5,6,7,8-tetrahydronaphthalene-2-carbonitrile], the IC50 stood at 80 nM.

`N#Cc1ccc2c(c1)CCC(N1CCN(CCc3ccc4nonc4c3)CC1=O)C2` (racemic) [Example 13, 6-{4-[2-(2,1,3-Benzoxadiazol-5-yl)ethyl]-2-oxopiperazin-1-yl}-5,6,7,8-tetrahydronaphthalene-2-carbonitrile] showed an IC50 of 310 nM.

As to `N#Cc1ccc2c(c1)CCC(N1CCN(CCc3ccc4nonc4c3)C(=O)C1)C2` (racemic) [Example 14, 6-{4-[2-(2,1,3-Benzoxadiazol-5-yl)ethyl]-3-oxopiperazin-1-yl}-5,6,7,8-tetrahydronaphthalene-2-carbonitrile], the half-maximal inhibitory concentration (IC50) amounted to 820 nM.

As for `N#Cc1ccc2c(c1)CCC(N1CCN(CCc3ccc([N+](=O)[O-])c(F)c3)CC1=O)C2` (racemic) [Example 21, 6-{4-[2-(3-Fluoro-4-nitrophenyl)ethyl]-2-oxopiperazin-1-yl}-5,6,7,8-tetrahydronaphthalene-2-carbonitrile], inhibition was half-maximal at 120 nM (IC50).

In the case of `N#Cc1ccc2c(c1)CCC(N1CCN(CCc3ccc([N+](=O)[O-])cc3)CC1=O)C2` (racemic) [Example 23, 6-{4-[2-(4-Nitrophenyl)ethyl]-2-oxopiperazin-1-yl}-5,6,7,8-tetrahydronaphthalene-2-carbonitrile], half-maximal inhibition (IC50) was put at 60 nM.

Consider `N#Cc1ccc(CCN2CCN(C3CCc4cc(C#N)ccc4C3)C(=O)C2)cc1` (racemic) [Example 25, 6-{4-[2-(4-Cyanophenyl)ethyl]-2-oxopiperazin-1-yl}-5,6,7,8-tetrahydronaphthalene-2-carbonitrile], for which half-maximal inhibition (IC50) required 240 nM.

In turn, `N#Cc1ccc2c(c1)CCC(N1CCN(CCc3ccc4c(c3)COC4=O)CC1=O)C2` (racemic) [Example 26, 6-{2-Oxo-4-[2-(1-oxo-1,3-dihydro-2-benzofuran-5-yl)ethyl]piperazin-1-yl}-5,6,7,8-tetrahydronaphthalene-2-carbonitrile] gave an IC50 of 30 nM.

The molecule `N#Cc1ccc2c(c1)CCC(N1CCN(CCc3ccc4c(c3)COC4=O)C(=O)C1)C2` (racemic) [Example 28, 6-{3-Oxo-4-[2-(1-oxo-1,3-dihydro-2-benzofuran-5-yl)ethyl]piperazin-1-yl}-5,6,7,8-tetrahydronaphthalene-2-carbonitrile] returned an IC50 of 410 nM.

`Cc1c(CCN2CCN(C3CCc4cc(C#N)ccc4C3)C(=O)C2)ccc2c1COC2=O` (racemic) [Example 30, 6-{4-[2-(4-Methyl-1-oxo-1,3-dihydro-2-benzofuran-5-yl)ethyl]-2-oxopiperazin-1-yl}-5,6,7,8-tetrahydronaphthalene-2-carbonitrile] came in with an IC50 of 310 nM.

Consider `N#Cc1ccc2c(c1)CCC(N1CCN(CCc3ccc4c(c3Cl)COC4=O)CC1=O)C2` (racemic) [Example 31, 6-{4-[2-(4-Chloro-1-oxo-1,3-dihydro-2-benzofuran-5-yl)ethyl]-2-oxopiperazin-1-yl}-5,6,7,8-tetrahydronaphthalene-2-carbonitrile], for which the IC50 came to 410 nM.

As to `N#Cc1cccc2c1CCCC2CN1CCN(CCc2ccc3c(c2)COC3=O)CC1=O` (racemic) [Example 33, 5-((2-oxo-4-(2-(1-oxo-1,3-dihydroisobenzofuran-5-yl)ethyl)piperazin-1-yl)methyl)-5,6,7,8-tetrahydronaphthalene-1-carbonitrile], the IC50 is 150 nM.
